From article PMC11433573 (Marine Drugs, 2024)
Positions of bridges follow the written chain, without caps; N, C: chain ends. Non-standard residues stand in square brackets, D forms with d. Residues, ends and D or L forms follow the SMILES beside them. Hyp = O=C(O)[C@@H]1C[C@@H](O)CN1

Assays:
Experiment in all cases: cell-based
[1] = target: T1, rα7 nAChR (Rattus norvegicus, UniProt Q05941)
T1 construct: expressed in transfected cells; host or cells: Xenopus laevis oocytes injected with cRNA

[2] = target: T2, rα3β2 nAChR (Rattus norvegicus, UniProt P04757+P12390); conditions: for inhibition at 10 µM: read-out: inhibition of rα3β2 at 10 μM
T2 construct: expressed in transfected cells; host or cells: Xenopus laevis oocytes injected with cRNA

[3] = target: T3, rα3β4 nAChR (Rattus norvegicus, UniProt P04757+P12392); conditions: for inhibition at 10 µM: read-out: inhibition of rα3β4 at 10 μM
T3 construct: expressed in transfected cells; host or cells: Xenopus laevis oocytes injected with cRNA
T3 sequence (P04757 26-499): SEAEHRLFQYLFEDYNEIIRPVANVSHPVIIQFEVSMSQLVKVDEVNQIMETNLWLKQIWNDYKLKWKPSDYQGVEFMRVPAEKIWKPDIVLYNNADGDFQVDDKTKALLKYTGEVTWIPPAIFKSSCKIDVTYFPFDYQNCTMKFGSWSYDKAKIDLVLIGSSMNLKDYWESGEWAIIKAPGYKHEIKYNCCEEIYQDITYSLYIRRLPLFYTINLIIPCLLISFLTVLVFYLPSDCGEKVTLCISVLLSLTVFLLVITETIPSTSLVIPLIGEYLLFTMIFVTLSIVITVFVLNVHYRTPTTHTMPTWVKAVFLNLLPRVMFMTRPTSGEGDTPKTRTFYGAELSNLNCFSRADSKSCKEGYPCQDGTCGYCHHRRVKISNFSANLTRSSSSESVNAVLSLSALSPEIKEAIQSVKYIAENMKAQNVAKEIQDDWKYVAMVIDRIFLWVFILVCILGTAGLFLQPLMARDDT
T3 sequence (P12392 22-495 limits assumed): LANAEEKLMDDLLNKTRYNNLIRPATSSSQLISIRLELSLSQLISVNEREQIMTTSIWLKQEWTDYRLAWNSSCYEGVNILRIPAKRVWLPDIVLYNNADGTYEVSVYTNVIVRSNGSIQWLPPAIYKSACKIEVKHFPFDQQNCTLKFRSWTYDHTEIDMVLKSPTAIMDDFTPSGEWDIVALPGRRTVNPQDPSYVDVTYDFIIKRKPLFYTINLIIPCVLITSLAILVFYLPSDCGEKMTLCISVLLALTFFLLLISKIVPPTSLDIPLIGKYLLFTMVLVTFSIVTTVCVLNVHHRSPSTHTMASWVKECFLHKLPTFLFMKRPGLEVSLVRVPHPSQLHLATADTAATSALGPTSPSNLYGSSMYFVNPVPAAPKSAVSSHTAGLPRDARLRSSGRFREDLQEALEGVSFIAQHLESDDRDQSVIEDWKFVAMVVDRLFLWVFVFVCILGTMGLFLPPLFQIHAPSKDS

T1 sequence (Q05941 23-502): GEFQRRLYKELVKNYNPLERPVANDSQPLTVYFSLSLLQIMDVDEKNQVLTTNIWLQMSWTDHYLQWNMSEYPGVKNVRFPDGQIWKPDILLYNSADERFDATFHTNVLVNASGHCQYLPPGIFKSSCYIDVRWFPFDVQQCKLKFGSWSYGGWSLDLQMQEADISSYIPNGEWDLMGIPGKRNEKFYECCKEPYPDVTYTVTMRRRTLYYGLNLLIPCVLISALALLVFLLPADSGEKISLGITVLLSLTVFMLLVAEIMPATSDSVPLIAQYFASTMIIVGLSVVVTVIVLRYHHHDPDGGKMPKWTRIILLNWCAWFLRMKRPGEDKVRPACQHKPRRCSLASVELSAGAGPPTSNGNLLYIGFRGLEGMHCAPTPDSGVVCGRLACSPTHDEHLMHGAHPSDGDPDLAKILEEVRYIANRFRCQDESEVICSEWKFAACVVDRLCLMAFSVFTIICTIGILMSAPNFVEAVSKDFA
T2 sequence (P04757 26-499): as the sequence (P04757 26-499) above
T2 sequence (P12390 25-500): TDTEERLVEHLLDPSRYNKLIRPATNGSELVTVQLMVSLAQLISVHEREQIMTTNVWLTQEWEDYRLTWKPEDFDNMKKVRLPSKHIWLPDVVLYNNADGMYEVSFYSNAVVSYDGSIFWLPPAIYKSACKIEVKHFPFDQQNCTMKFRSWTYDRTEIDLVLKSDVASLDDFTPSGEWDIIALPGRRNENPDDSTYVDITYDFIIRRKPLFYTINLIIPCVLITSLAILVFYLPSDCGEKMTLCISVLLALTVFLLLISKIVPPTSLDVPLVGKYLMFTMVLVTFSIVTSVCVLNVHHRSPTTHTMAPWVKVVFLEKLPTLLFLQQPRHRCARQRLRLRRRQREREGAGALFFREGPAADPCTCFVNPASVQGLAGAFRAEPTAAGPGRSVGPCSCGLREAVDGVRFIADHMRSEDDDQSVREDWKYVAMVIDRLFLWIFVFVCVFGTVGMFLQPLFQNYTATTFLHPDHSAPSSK

Compound	IC50 [1]	IC50 [2]	IC50 [3]	inhibition at 10 µM [2]	inhibition at 10 µM [3]
CC[C@H](C)[C@@H]1NC(=O)[C@H](Cc2cnc[nH]2)NC(=O)[C@@H]2CCCN2C(=O)[C@H](CC(N)=O)NC(=O)[C@H](CC(N)=O)NC(=O)[C@H](C(C)C)NC(=O)[C@H](CC(N)=O)NC(=O)[C@@H]2CSSC[C@H](NC(=O)CN)C(=O)N[C@@H](CSSC[C@@H](C(N)=O)NC1=O)C(=O)N[C@@H](CO)C(=O)N[C@@H](Cc1cnc[nH]1)C(=O)N1CCC[C@H]1C(=O)N[C@@H](C)C(=O)N2 [RegIIA, reference compound] (H-GCCSHPACNVNNPHIC-NH2; disulfide 2-8, 3-16)	43 nM	36 nM	102 nM		
CC[C@H](C)[C@@H]1NC(=O)[C@H](Cc2c[nH]cn2)NC(=O)[C@@H]2CCCN2C(=O)[C@H](CC(N)=O)NC(=O)[C@H](CC(N)=O)NC(=O)[C@H](C(C)C)NC(=O)[C@H](CC(N)=O)NC(=O)[C@@H]2CSSC[C@H](NC(=O)CN)C(=O)N[C@@H](CSSC[C@@H](C(N)=O)NC1=O)C(=O)N[C@@H](CO)C(=O)N[C@@H](CC(C)C)C(=O)N1CCC[C@H]1C(=O)N[C@@H](C)C(=O)N2 [[H5L]RegIIA] (H-GCCSLPACNVNNPHIC-NH2; disulfide 2-8, 3-16)	> 10000 nM	> 10000 nM	> 10000 nM		
CC[C@H](C)[C@@H]1NC(=O)[C@H](Cc2c[nH]cn2)NC(=O)[C@@H]2CCCN2C(=O)[C@H](CC(N)=O)NC(=O)[C@H](CC(N)=O)NC(=O)[C@H](C(C)C)NC(=O)[C@H](CC(N)=O)NC(=O)[C@@H]2CSSC[C@H](NC(=O)CN)C(=O)N[C@@H](CSSC[C@@H](C(N)=O)NC1=O)C(=O)N[C@@H](CO)C(=O)N[C@@H](CCC(=O)O)C(=O)N1CCC[C@H]1C(=O)N[C@@H](C)C(=O)N2 [[H5E]RegIIA] (H-GCCSEPACNVNNPHIC-NH2; disulfide 2-8, 3-16)	441 nM	> 10000 nM	> 10000 nM		
CC[C@H](C)[C@@H]1NC(=O)[C@H](Cc2c[nH]cn2)NC(=O)[C@@H]2CCCN2C(=O)[C@H](CC(N)=O)NC(=O)[C@H](CC(N)=O)NC(=O)[C@H](C(C)C)NC(=O)[C@H](CC(N)=O)NC(=O)[C@@H]2CSSC[C@H](NC(=O)CN)C(=O)N[C@@H](CSSC[C@@H](C(N)=O)NC1=O)C(=O)N[C@@H](CO)C(=O)N[C@@H](C(C)C)C(=O)N1CCC[C@H]1C(=O)N[C@@H](C)C(=O)N2 [[H5V]RegIIA] (H-GCCSVPACNVNNPHIC-NH2; disulfide 2-8, 3-16)	97 nM	> 10000 nM	8800 nM		
CC[C@H](C)[C@@H]1NC(=O)[C@H](Cc2c[nH]cn2)NC(=O)[C@@H]2CCCN2C(=O)[C@H](CC(N)=O)NC(=O)[C@H](CC(N)=O)NC(=O)[C@H](C(C)C)NC(=O)[C@H](CC(N)=O)NC(=O)[C@@H]2CSSC[C@H](NC(=O)CN)C(=O)N[C@@H](CSSC[C@@H](C(N)=O)NC1=O)C(=O)N[C@@H](CO)C(=O)N[C@@H](Cc1c[nH]cn1)C(=O)N[C@@H](C)C(=O)N[C@@H](C)C(=O)N2 [[P6A]RegIIA] (H-GCCSHAACNVNNPHIC-NH2; disulfide 2-8, 3-16)	459 nM	> 10000 nM	> 10000 nM	< 50%	< 50%
CC[C@H](C)[C@@H]1NC(=O)[C@H](Cc2c[nH]cn2)NC(=O)[C@@H]2CCCN2C(=O)[C@H](CC(N)=O)NC(=O)[C@H](CC(N)=O)NC(=O)[C@H](C(C)C)NC(=O)[C@H](CC(N)=O)NC(=O)[C@@H]2CSSC[C@H](NC(=O)CN)C(=O)N[C@@H](CSSC[C@@H](C(N)=O)NC1=O)C(=O)N[C@@H](CO)C(=O)NCC(=O)N1CCC[C@H]1C(=O)N[C@@H](C)C(=O)N2 [[H5G]RegIIA] (H-GCCSGPACNVNNPHIC-NH2; disulfide 2-8, 3-16)	3540 nM	> 10000 nM	> 10000 nM		
CC[C@H](C)[C@@H]1NC(=O)[C@H](Cc2c[nH]cn2)NC(=O)[C@@H]2CCCN2C(=O)[C@H](CC(N)=O)NC(=O)[C@H](CC(N)=O)NC(=O)[C@H](C(C)C)NC(=O)[C@H](CC(N)=O)NC(=O)[C@@H]2CSSC[C@H](NC(=O)CN)C(=O)N[C@@H](CSSC[C@@H](C(N)=O)NC1=O)C(=O)N[C@@H](CO)C(=O)N[C@@H](C)C(=O)N1CCC[C@H]1C(=O)N[C@@H](C)C(=O)N2 [[H5A]RegIIA] (H-GCCSAPACNVNNPHIC-NH2; disulfide 2-8, 3-16)	446 nM	> 10000 nM	> 10000 nM	< 50%	< 50%
CC[C@H](C)[C@@H]1NC(=O)[C@H](Cc2c[nH]cn2)NC(=O)[C@@H]2CCCN2C(=O)[C@H](CC(N)=O)NC(=O)[C@H](CC(N)=O)NC(=O)[C@H](C(C)C)NC(=O)[C@H](CC(N)=O)NC(=O)[C@@H]2CSSC[C@H](NC(=O)CN)C(=O)N[C@@H](CSSC[C@@H](C(N)=O)NC1=O)C(=O)N[C@@H](CO)C(=O)N[C@@H](CO)C(=O)N1CCC[C@H]1C(=O)N[C@@H](C)C(=O)N2 [[H5S]RegIIA] (H-GCCSSPACNVNNPHIC-NH2; disulfide 2-8, 3-16)	100 nM	> 10000 nM	5730 nM		
CC[C@H](C)[C@@H]1NC(=O)[C@H](Cc2c[nH]cn2)NC(=O)[C@@H]2CCCN2C(=O)[C@H](CC(N)=O)NC(=O)[C@H](CC(N)=O)NC(=O)[C@H](C(C)C)NC(=O)[C@H](CC(N)=O)NC(=O)[C@@H]2CSSC[C@H](NC(=O)CN)C(=O)N[C@@H](CSSC[C@@H](C(N)=O)NC1=O)C(=O)N[C@@H](C)C(=O)N[C@@H](Cc1c[nH]cn1)C(=O)N1CCC[C@H]1C(=O)N[C@@H](C)C(=O)N2 [[S4A]RegIIA] (H-GCCAHPACNVNNPHIC-NH2; disulfide 2-8, 3-16)	39 nM	34 nM	95 nM		
CC[C@H](C)[C@@H]1NC(=O)[C@H](Cc2c[nH]cn2)NC(=O)[C@@H]2CCCN2C(=O)[C@H](CC(N)=O)NC(=O)[C@H](CC(N)=O)NC(=O)[C@H](C(C)C)NC(=O)[C@H](CC(N)=O)NC(=O)[C@@H]2CSSC[C@H](NC(=O)CN)C(=O)N[C@@H](CSSC[C@@H](C(N)=O)NC1=O)C(=O)N[C@@H](CO)C(=O)N[C@@H](Cc1c[nH]cn1)C(=O)N1CCC[C@H]1C(=O)NCC(=O)N2 [[A7G]RegIIA] (H-GCCSHPGCNVNNPHIC-NH2; disulfide 2-8, 3-16)	600 nM	> 10000 nM	964 nM		
CC[C@H](C)[C@@H]1NC(=O)[C@H](Cc2c[nH]cn2)NC(=O)[C@@H]2CCCN2C(=O)[C@H](CC(N)=O)NC(=O)[C@H](CC(N)=O)NC(=O)[C@H](C(C)C)NC(=O)[C@H](CC(N)=O)NC(=O)[C@@H]2CSSC[C@H](NC(=O)[C@H](C)N)C(=O)N[C@@H](CSSC[C@@H](C(N)=O)NC1=O)C(=O)N[C@@H](CO)C(=O)N[C@@H](Cc1c[nH]cn1)C(=O)N1CCC[C@H]1C(=O)N[C@@H](C)C(=O)N2 [[G1A]RegIIA] (H-ACCSHPACNVNNPHIC-NH2; disulfide 2-8, 3-16)	286 nM	90 nM	132 nM		
CC[C@H](C)[C@@H]1NC(=O)[C@H](Cc2c[nH]cn2)NC(=O)[C@@H]2CCCN2C(=O)[C@H](CC(N)=O)NC(=O)[C@H](CC(N)=O)NC(=O)[C@H](C(C)C)NC(=O)[C@H](CC(N)=O)NC(=O)[C@@H]2CSSC[C@H](NC(=O)CN)C(=O)N[C@@H](CSSC[C@@H](C(N)=O)NC1=O)C(=O)N[C@@H](CO)C(=O)N[C@@H](Cc1c[nH]cn1)C(=O)N1C[C@H](O)C[C@H]1C(=O)N[C@@H](C)C(=O)N2 [[P6O]RegIIA] (H-GCCSH[Hyp]ACNVNNPHIC-NH2; disulfide 2-8, 3-16)	> 10000 nM	> 10000 nM	> 10000 nM		
